Measurements taken from PMC3445516 (PLoS ONE, 2012).
Like-named read-outs stand apart in the source and are kept apart here. Values belong to the compound of their own block, whether it stands above or below them.

What was measured:
Experiment in all cases: Ambit kinase profiling, competition binding
CLK1 = molecular target: T1, CLK1 (Homo sapiens, UniProt P49759)
T1 construct: purchased Ambit Biosciences (KINOMEscan)
Procedure: (§1) Also included in the kinase profile are four isoforms of PKC (δ, ε, η, θ) and eight isoforms of CAMKs (CAMKIα, δ, γ; CAMKIIα, β, δ, γ; CAMK4).
(§2) The global kinase profiling experiment was performed by Ambit Biosciences.

CSK = molecular target: T2, CSK (Homo sapiens, UniProt P41240); details: for % Competition: 10 µM
T2 construct: purchased Ambit Biosciences (KINOMEscan)
Procedure: as §1, §2

EGFR(G719C) = molecular target: T3, EGFR(G719C) (Homo sapiens, UniProt P00533, G719C); details: for % Competition: 10 µM
T3 construct: purchased Ambit Biosciences (KINOMEscan)
Procedure: as §1, §2

EPHB4 = molecular target: T4, EPHB4 (Homo sapiens, UniProt P54760)
T4 construct: purchased Ambit Biosciences (KINOMEscan)
T4 sequence (P54760 16-987): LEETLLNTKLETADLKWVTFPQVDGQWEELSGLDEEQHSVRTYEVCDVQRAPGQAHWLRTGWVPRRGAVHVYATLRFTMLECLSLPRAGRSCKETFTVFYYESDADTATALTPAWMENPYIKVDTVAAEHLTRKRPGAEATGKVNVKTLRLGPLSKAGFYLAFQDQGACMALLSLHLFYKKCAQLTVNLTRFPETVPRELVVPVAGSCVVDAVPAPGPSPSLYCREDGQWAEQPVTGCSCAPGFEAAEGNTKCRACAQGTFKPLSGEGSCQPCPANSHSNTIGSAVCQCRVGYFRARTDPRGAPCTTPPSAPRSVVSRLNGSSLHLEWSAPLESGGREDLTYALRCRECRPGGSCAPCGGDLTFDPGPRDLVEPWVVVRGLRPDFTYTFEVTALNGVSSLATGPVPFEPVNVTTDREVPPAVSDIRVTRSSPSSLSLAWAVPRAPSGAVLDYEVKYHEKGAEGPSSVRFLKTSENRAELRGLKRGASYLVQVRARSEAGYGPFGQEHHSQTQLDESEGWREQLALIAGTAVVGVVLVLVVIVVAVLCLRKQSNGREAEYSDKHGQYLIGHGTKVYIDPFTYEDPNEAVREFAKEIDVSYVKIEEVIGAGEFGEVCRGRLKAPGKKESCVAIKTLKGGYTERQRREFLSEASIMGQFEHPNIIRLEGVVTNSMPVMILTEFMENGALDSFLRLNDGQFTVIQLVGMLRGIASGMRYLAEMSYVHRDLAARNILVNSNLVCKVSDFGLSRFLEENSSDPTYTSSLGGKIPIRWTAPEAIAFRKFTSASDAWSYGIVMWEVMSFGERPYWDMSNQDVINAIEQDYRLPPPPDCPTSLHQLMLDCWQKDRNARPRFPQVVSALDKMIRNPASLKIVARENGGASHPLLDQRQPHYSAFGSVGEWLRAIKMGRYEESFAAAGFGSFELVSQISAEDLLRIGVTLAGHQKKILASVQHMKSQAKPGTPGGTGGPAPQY
Procedure: as §1, §2

ERK4 = molecular target: T5, ERK4 (Homo sapiens, UniProt P31152)
T5 construct: purchased Ambit Biosciences (KINOMEscan)
T5 sequence (P31152 whole entry): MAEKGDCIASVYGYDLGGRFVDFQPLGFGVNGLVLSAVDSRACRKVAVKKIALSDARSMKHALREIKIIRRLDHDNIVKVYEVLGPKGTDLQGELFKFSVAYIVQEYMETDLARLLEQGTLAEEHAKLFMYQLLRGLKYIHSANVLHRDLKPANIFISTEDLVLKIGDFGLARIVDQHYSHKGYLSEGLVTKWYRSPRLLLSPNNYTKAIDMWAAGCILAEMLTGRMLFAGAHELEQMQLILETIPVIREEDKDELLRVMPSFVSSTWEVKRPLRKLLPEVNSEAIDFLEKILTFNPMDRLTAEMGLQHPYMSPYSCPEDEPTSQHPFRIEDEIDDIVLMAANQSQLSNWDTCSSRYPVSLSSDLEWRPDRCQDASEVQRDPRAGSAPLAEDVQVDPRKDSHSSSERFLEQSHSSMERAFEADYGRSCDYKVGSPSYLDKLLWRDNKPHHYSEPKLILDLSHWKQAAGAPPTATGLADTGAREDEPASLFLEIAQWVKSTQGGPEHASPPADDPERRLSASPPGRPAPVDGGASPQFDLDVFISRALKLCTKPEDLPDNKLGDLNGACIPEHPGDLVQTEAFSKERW
Procedure: as §1, §2

MST4 = molecular target: T6, MST4 (Homo sapiens, UniProt Q9P289)
T6 construct: purchased Ambit Biosciences (KINOMEscan)
T6 sequence (Q9P289 whole entry): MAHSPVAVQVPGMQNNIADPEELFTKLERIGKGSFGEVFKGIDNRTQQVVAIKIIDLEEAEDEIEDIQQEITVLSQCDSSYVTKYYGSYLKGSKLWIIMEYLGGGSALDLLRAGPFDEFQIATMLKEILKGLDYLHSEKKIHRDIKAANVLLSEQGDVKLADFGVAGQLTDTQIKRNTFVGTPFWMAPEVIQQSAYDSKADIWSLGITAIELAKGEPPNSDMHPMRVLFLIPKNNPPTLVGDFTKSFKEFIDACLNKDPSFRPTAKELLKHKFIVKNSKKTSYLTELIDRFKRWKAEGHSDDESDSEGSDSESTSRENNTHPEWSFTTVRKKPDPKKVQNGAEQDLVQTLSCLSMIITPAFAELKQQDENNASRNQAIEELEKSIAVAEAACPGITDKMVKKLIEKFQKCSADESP
Procedure: as §1, §2

PAK7 = molecular target: T7, PAK7 (Homo sapiens, UniProt Q9P286)
T7 construct: purchased Ambit Biosciences (KINOMEscan)
T7 sequence (Q9P286 whole entry): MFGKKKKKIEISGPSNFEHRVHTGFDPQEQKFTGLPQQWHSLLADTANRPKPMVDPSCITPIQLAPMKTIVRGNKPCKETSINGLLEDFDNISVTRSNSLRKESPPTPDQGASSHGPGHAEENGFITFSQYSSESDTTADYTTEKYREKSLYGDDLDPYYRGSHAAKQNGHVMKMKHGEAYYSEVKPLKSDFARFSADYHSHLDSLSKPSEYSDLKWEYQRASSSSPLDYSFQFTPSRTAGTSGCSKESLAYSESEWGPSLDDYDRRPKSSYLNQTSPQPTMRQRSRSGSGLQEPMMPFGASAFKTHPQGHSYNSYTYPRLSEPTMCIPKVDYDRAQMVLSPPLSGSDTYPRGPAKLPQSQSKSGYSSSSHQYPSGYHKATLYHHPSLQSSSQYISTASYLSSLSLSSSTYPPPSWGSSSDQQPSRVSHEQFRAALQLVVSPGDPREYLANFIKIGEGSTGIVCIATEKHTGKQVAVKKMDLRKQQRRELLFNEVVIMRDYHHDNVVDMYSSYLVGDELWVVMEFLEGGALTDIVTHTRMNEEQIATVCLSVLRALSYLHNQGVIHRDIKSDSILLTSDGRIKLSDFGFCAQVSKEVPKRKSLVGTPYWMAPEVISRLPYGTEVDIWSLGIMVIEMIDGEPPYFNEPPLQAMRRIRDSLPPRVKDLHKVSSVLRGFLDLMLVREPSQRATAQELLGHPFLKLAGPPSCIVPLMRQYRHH
Procedure: as §1, §2

PCTK2 = molecular target: T8, PCTK2 (Homo sapiens, UniProt Q00537)
T8 construct: purchased Ambit Biosciences (KINOMEscan)
T8 sequence (Q00537 whole entry): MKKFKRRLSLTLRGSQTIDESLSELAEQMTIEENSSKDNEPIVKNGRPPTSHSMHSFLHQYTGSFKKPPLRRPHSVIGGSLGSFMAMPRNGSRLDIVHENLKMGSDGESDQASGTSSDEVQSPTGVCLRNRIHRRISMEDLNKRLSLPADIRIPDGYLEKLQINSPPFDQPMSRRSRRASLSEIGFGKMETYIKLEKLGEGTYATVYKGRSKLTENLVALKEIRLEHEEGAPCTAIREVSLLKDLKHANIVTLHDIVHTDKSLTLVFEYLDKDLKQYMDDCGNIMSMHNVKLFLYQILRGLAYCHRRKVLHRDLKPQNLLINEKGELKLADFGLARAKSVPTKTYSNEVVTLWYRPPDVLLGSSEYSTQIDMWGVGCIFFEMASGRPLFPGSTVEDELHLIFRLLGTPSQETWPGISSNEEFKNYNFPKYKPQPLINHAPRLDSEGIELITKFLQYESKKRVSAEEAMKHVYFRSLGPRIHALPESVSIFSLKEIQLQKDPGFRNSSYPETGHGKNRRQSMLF
Procedure: as §1, §2

PRKCQ = molecular target: T9, PRKCQ (Homo sapiens, UniProt Q04759)
T9 construct: purchased Ambit Biosciences (KINOMEscan)
T9 sequence (Q04759 whole entry): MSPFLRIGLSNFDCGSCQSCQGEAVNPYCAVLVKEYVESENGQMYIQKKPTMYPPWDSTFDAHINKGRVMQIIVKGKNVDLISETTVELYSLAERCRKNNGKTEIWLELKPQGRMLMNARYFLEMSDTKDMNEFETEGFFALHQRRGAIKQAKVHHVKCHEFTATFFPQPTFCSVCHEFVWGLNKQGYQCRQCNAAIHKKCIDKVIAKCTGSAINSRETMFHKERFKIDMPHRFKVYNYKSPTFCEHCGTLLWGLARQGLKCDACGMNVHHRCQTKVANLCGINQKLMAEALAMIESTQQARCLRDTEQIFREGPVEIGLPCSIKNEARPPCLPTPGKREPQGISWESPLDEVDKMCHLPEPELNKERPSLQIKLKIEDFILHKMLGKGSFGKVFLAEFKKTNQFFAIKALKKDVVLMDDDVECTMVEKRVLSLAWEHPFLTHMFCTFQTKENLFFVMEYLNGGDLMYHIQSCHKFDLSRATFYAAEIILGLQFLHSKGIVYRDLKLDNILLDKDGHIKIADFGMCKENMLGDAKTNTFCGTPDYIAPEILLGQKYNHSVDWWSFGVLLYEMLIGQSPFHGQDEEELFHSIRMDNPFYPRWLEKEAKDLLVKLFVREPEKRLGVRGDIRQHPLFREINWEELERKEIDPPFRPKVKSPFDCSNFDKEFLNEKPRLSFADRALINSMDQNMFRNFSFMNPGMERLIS
Procedure: as §1, §2

STK36 = molecular target: T10, STK36 (Homo sapiens, UniProt Q9NRP7)
T10 construct: purchased Ambit Biosciences (KINOMEscan)
T10 sequence (Q9NRP7 1-1315): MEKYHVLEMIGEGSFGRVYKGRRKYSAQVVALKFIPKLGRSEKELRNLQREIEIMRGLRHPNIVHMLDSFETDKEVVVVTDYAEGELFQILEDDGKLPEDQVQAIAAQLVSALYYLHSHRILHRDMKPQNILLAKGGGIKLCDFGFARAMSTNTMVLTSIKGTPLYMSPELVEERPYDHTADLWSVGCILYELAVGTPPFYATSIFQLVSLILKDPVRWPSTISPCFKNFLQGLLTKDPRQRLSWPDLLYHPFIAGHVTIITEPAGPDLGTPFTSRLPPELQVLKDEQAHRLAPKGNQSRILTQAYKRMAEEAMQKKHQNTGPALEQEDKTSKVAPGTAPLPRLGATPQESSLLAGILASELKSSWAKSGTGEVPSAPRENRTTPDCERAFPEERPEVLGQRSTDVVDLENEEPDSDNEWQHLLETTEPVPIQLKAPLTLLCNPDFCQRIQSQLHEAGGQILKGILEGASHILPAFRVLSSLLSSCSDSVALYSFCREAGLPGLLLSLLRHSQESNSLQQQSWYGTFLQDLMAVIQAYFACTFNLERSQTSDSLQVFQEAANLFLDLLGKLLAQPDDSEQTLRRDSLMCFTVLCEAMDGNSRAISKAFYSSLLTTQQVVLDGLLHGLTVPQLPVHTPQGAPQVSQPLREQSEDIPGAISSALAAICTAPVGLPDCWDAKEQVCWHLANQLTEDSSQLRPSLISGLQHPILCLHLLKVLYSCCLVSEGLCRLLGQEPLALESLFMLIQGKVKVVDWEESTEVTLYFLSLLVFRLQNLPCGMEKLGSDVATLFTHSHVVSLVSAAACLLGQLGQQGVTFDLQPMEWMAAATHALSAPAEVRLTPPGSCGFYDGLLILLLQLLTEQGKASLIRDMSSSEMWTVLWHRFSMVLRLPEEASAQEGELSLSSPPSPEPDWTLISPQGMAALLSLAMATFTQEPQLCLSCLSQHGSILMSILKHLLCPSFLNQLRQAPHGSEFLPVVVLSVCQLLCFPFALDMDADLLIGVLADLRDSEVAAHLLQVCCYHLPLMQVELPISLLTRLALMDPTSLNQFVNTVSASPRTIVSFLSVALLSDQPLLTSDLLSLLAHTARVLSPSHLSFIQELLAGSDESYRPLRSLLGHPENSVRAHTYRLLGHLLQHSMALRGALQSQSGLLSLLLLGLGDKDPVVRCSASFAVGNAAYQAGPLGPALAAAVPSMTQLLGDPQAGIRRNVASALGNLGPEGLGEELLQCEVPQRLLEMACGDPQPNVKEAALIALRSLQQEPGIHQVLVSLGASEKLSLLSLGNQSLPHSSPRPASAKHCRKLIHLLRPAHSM
Procedure: as §1, §2

T1 sequence (P49759 whole entry): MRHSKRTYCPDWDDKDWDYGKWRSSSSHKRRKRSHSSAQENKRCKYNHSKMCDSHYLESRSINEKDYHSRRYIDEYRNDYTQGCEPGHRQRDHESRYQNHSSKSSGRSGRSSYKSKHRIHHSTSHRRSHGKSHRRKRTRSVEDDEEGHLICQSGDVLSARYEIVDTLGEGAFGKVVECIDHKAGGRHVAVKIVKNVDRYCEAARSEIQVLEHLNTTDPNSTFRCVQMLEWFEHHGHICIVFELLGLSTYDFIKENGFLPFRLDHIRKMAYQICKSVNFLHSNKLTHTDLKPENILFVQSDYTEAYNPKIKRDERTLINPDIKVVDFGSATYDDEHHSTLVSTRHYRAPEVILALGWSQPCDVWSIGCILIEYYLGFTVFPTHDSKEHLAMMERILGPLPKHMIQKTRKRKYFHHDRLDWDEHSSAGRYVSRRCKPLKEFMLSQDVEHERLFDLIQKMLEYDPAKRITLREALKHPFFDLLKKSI

inhibition at 10 µM (CLK1; CLK1, 10 µM, read-out: % Competition): 97%
% Competition (CSK): 71%
% Competition (EGFR(G719C)): 99%
inhibition at 10 µM (EPHB4; EPHB4, 10 µM, read-out: % Competition): 72%
inhibition at 10 µM (ERK4; ERK4, 10 µM, read-out: % Competition): 68%
inhibition at 10 µM (MST4; MST4, 10 µM, read-out: % Competition): 97%
inhibition at 10 µM (PAK7; PAK7, 10 µM, read-out: % Competition): 86%
inhibition at 10 µM (PCTK2; PCTK2, 10 µM, read-out: % Competition): 78%
inhibition at 10 µM (PRKCQ; PRKCQ (PKC θ), 10 µM, read-out: % Competition): 78%
inhibition at 10 µM (STK36; STK36, 10 µM, read-out: % Competition): 100%
Compound: Fc1ccc(-c2c(-c3ccncc3)[nH]c3nccnc23)cc1 [Compound 122]

Compound: CC(O)CNc1cc(-c2[nH]c3cccnc3c2-c2ccc(F)cc2)ccn1 (stereo not shown) [Compound 140]
inhibition at 10 µM (CLK1; read-out: % Competition): < 50%
% Competition (CSK): <50%
% Competition (EGFR(G719C)): 87%
inhibition at 10 µM (EPHB4; read-out: % Competition): < 50%
inhibition at 10 µM (ERK4; read-out: % Competition): < 50%
inhibition at 10 µM (MST4; read-out: % Competition): < 50%
inhibition at 10 µM (PAK7; read-out: % Competition): < 50%
inhibition at 10 µM (PCTK2; read-out: % Competition): < 50%
% Competition (PRKCQ; PRKCQ (PKC θ), 10 µM): <50%
inhibition at 10 µM (PRKCQ; read-out: % Competition): < 50%
inhibition at 10 µM (STK36; read-out: % Competition, STK36, 10 µM): 99 to 100%

inhibition at 10 µM (CLK1; CLK1, compound concentration 10 uM, read-out: Percent Competition): 97%
Percent Competition (CSK; compound concentration 10 uM): 71%
Percent Competition (EGFR(G719C); compound concentration 10 uM): 99%
inhibition at 10 µM (EPHB4; EPHB4, compound concentration 10 uM, read-out: Percent Competition): 72%
inhibition at 10 µM (ERK4; ERK4, compound concentration 10 uM, read-out: Percent Competition): 68%
inhibition at 10 µM (MST4; MST4, compound concentration 10 uM, read-out: Percent Competition): 97%
inhibition at 10 µM (PAK7; PAK7, compound concentration 10 uM, read-out: Percent Competition): 86%
inhibition at 10 µM (PCTK2; PCTK2, compound concentration 10 uM, read-out: Percent Competition): 78%
inhibition at 10 µM (PRKCQ; PRKCQ, compound concentration 10 uM, read-out: Percent Competition): 78%
inhibition at 10 µM (STK36; STK36, compound concentration 10 uM, read-out: Percent Competition): 100%
Compound: Fc1ccc(-c2c(-c3ccncc3)[nH]c3nccnc23)cc1 [RO1155697-000-005]
